The results in this text go back to ChEMBL document CHEMBL1146207, “Gypsophin: a novel alpha-glucosidase inhibitory cyclic peptide from the roots of Gypsophila oldhamiana” (Bioorg Med Chem Lett, 2007).

The test addresses Sucrase-isomaltase, intestinal (Homo sapiens, UniProt P14410). In words: Inhibition of alpha-glucosidase by enzyme inhibition assay.

Sequence of Sucrase-isomaltase, intestinal (P14410 2-1007 limits assumed): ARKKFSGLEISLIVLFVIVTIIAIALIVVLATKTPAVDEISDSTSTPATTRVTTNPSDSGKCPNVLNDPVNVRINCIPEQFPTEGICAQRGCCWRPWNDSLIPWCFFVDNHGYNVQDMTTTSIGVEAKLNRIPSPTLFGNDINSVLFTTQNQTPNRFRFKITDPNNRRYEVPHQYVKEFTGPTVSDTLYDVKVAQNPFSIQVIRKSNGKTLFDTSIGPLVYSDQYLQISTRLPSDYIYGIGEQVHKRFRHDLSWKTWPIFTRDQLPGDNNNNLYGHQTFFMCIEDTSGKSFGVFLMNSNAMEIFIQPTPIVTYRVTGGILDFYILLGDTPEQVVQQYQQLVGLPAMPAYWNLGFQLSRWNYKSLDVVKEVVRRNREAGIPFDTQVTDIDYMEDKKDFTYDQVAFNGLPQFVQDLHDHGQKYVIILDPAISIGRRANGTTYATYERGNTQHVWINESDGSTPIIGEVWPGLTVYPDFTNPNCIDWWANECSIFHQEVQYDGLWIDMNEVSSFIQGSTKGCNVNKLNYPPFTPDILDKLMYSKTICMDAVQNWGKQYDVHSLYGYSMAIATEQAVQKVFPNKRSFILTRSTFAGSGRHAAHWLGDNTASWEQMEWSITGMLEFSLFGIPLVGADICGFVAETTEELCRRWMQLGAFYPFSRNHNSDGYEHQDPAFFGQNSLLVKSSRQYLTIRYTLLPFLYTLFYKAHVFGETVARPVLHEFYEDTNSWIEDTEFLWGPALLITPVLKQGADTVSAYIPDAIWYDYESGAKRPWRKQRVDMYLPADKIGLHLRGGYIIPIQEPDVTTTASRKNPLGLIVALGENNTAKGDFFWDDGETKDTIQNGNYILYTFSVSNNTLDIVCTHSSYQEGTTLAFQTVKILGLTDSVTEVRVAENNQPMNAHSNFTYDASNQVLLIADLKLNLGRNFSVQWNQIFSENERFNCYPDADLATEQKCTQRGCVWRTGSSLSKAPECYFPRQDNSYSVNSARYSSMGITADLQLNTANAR
Sequence of Sucrase-isomaltase, intestinal (P14410 1008-1827 limits assumed): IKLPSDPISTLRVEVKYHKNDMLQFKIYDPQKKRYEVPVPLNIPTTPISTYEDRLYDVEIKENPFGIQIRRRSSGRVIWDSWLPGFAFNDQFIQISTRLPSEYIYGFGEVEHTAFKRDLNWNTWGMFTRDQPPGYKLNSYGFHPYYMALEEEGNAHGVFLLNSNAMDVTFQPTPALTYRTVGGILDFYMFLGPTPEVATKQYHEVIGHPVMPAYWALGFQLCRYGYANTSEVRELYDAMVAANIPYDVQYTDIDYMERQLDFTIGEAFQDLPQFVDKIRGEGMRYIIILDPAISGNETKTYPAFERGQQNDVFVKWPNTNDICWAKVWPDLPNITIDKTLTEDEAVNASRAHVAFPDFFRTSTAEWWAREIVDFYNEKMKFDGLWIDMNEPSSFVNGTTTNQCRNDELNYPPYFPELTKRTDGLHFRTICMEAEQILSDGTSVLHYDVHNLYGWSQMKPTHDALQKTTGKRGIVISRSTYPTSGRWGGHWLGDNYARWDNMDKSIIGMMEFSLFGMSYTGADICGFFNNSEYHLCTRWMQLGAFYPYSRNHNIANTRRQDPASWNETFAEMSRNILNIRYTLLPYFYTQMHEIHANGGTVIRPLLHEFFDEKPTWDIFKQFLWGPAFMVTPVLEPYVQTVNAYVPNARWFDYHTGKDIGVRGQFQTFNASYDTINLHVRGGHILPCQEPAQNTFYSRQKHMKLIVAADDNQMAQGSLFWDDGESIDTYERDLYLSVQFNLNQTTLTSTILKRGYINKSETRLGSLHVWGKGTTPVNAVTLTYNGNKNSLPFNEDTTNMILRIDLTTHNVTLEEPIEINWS

Broadly, the IC50 is the concentration that gives 50% inhibition. Regarding `CC[C@H](C)[C@@H]1NC(=O)[C@H](Cc2ccccc2)N2C(=O)C[C@H](NC(=O)[C@H](Cc3ccccc3)NC(=O)CNC(=O)[C@@H]3CCCN3C(=O)[C@H](CC(C)C)NC1=O)C2=O` [GYPSOPHIN], the IC50 is 305 µM.
